“And” between values parts separate entries of the source, which are not always exact repeats. Identical values can stand only once. Like-named read-outs stand apart in the source and are kept apart here.
What was measured:
[1] = intravenous application of 2 mg/kg; cited from earlier work
[2] = system: G-599GM cell line; assay: Growth inhibition assay (incl. isobolographic analysis); format: cell-based; settings: Homo sapiens; for IC50: read-out: IC50, drug alone
Protocol: (§1) Nine established GBM cell lines derived from histopathologically confirmed neurosurgical specimens obtained in the Department for Neurosurgery, University of Gottingen, Germany, were maintained in RPMI 1640 medium (BioWhittaker, Walkersville, Md., U.S.A.) supplemented with 10% heat-inactivated fetal calf serum and incubated in a humidified 5% CO2 atmosphere at 37° C. Medium was exchanged twice weekly, and cells were passaged upon reaching subconfluence. At the beginning of the study, all cell lines were beyond their 20th passage. The in vitro response to cytostatic drugs was evaluated by means of a growth inhibition assay. Aliquots of 5×10^3 cells/ml were seeded in culture medium, and drugs were added at different concentrations. Cells were counted 10 days after seeding. These growth curves represent the net outcome of cell proliferation and cell death. Cell numbers were quantitated each in eight independent determinations. […] G. and Peckham, M. J. (1979) Int. J. Radiat. Oncol. Biol. Phys. 5:85-91; Berenbaum, M. C. (1981) Adv. Cancer Res. 35:269-335).

[3] = system: 14 GBM cell lines; assay: Growth inhibition assay, panel; format: cell-based; settings: Homo sapiens; ART alone; range over 14 cell lines
Excerpt: as §1, with “(1997) J. Biol. Chem. 272:2927-2935). The cell lines were provided by Dr. W. K. Cavenee (Ludwig Institute for Cancer Research, San Diego, Calif., U.S.A.). Cell culture conditions of these cell lines were as described ([…], et al. (1996) Cancer Res. 56:5079-5086). Nine” for “Nine”

[4] = patients with advanced solid malignancies, phase I; cited from earlier work
[5] = system: U-87MG cells; assay: Growth inhibition assay; format: cell-based; settings: Homo sapiens, 240 h, single drug, cells counted 10 days after seeding, read-out: IC50 calculated from the dose-response curves
Protocol: (§2) The establishment of the parental human GBM cell line U-87MG and its derivatives which overexpress exogenous wild-type epidermal growth factor receptor (U-87MG.WT-2N), tyrosine kinase-deficient EGFR (U-87MG.DK-2N), EGFR with a genomic deletion of exons 2 to 7 (U-87MG.ΔEGFR), or control expression vector (U-87MG.LUX), respectively, has been described elsewhere (Huang, H-J S et al. (1997) J. Biol. Chem. 272:2927-2935). The cell lines were provided by Dr. W. K. Cavenee (Ludwig Institute for Cancer Research, San Diego, Calif., U.S.A.). Cell culture conditions of these cell lines were as described (Nagane M, et al. (1996) Cancer Res. 56:5079-5086).
(§3) The in vitro response to cytostatic drugs was evaluated by means of a growth inhibition assay. Aliquots of 5×10^3 cells/ml were seeded in culture medium, and drugs were added at different concentrations. Cells were counted 10 days after seeding. These growth curves represent the net outcome of cell proliferation and cell death. Cell numbers were quantitated each in eight independent determinations.

[6] = system: U-87MG.WT-2N cells; assay: Growth inhibition assay; format: cell-based; settings: Homo sapiens
Protocol: as §2, §3

[7] = system: G-1265GM; assay: Growth inhibition assay; format: cell-based; settings: Homo sapiens
Protocol: Nine established GBM cell lines derived from histopathologically confirmed neurosurgical specimens obtained in the Department for Neurosurgery, University of Gottingen, Germany, were maintained in RPMI 1640 medium (BioWhittaker, Walkersville, Md., U.S.A.) supplemented with 10% heat-inactivated fetal calf serum and incubated in a humidified 5% CO2 atmosphere at 37° C. Medium was exchanged twice weekly, and cells were passaged upon reaching subconfluence. At the beginning of the study, all cell lines were beyond their 20th passage.
as §3

Row | SMILES | peak plasma concentration [1] [µM] | IC50 ([2]; single drug) [µM] | IC50 [3] [µM] | average minimal steady state plasma concentration [4] | IC50 [2] [µM] | inhibition at 1 µM ([2]; read-out: growth inhibition) [%] | IC50 [5] [µM] | inhibition at 1 µM [6] [%] | inhibition at 1 µM [7] [%]
1 | C[C@H]1[C@H](OC(=O)CCC(=O)O)O[C@@H]2O[C@@]3(C)CC[C@H]4[C@H](C)CC[C@@H]1[C@@]24OO3 [ART, artesunate] | 6.88 ± 4.69 | 4.2 | 1.5 to 18.5 | – | – | – | – | – | –
2 | C#Cc1cccc(Nc2ncnc3cc(OCCOC)c(OCCOC)cc23)c1 [OSI-774, [6,7-bis(2-methoxyethoxy)-4-quinazolin-4-yl]-(3-ethynylphenyl)amine] | – | – | – | 1.2 μg/ml and 3 μM | 1.3 | 23.4 | 8.6 | 33.8 | -1.79

Source: patent US20060084675A1, “Combined treatment with artesunate and an epidermal growth factor receptor kinase inhibitor” (priority 2004, published 2006)
